The text below walks through data of patent US20240158446A1, “CYCLIC COMPOUND HAVING SELECTIVE INHIBITORY ACTION ON KRAS OVER HRAS AND NRAS” (CHUGAI SEIYAKU KABUSHIKI KAISHA, priority 2021, published 2024).

Read-outs that look alike come from different tables or passages of the source.

For test [1], the system named is human lung cancer strain NCI-H441. Particulars: read-out: NCI-H441 cell proliferation inhibitory activity, 50% proliferation inhibitory concentration (IC50 value); NCI-H441, four days, CellTiter-Glo. Background: In ATP-based viability assays light output follows the ATP content of the culture.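 Note: cell proliferation inhibition after four days measured by CellTiter-Glo.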
For test [2], the target named is GDP-bound NRAS wild-type protein (Homo sapiens, UniProt P01111). Kind of test: Binding to NRAS by surface plasmon resonance (SPR), Single Cycle Kinetics. Particulars: SPR; for NRAS/KRAS (ratio of KD value for NRAS to KD value for KRAS): GDP-bound NRAS wild-type protein vs GDP-bound KRAS wild-type protein. On the technique in general: Surface plasmon resonance follows binding to a sensor surface in real time, without labels.

The target of test [3] is GDP-bound KRAS wild-type protein (Homo sapiens, UniProt P01116). Kind of test: Binding to KRAS by surface plasmon resonance (SPR), Single Cycle Kinetics. The conditions noted are these: SPR, Single Cycle Kinetics.
The target in test [4] is GDP-bound HRAS wild-type protein (Homo sapiens, UniProt P01112). Kind of test: Binding to HRAS by surface plasmon resonance (SPR), Single Cycle Kinetics. Particulars: SPR; for HRAS/KRAS (ratio of KD value for HRAS to KD value for KRAS): GDP-bound HRAS wild-type protein vs GDP-bound KRAS wild-type protein.
Where [5] appears, read: 1:1 binding model, read-out: KD value with respect to GDP-bound KRAS wild-type protein.
Where [6] appears, read: GDP-bound KRAS wild-type protein, read-out: KRAS KD.

GDP-bound NRAS wild-type protein, sequence (P01111 whole entry): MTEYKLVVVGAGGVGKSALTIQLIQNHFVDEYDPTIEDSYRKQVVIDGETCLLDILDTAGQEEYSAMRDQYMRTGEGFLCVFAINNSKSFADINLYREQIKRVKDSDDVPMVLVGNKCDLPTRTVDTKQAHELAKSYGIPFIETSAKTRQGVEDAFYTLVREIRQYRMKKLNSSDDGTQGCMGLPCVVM
GDP-bound KRAS wild-type protein, sequence (P01116 whole entry): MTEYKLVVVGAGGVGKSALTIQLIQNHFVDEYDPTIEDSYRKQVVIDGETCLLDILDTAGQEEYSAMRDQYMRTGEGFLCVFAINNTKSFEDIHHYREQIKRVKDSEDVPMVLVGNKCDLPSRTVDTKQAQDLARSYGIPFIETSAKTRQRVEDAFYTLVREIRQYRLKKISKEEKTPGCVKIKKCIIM
GDP-bound HRAS wild-type protein, sequence (P01112 whole entry): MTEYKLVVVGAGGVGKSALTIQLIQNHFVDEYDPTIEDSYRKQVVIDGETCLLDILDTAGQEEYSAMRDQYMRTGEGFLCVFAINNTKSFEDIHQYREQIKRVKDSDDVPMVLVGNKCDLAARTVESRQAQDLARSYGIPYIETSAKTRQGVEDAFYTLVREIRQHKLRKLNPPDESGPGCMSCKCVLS

For `CC[C@H](C)[C@@H]1NC(=O)[C@H](CC(C)C)N(C)C(=O)CSC[C@H](C(=O)N(C)C)N(C)C(=O)[C@H](C2CCCC2)N(C)C(=O)C2(CCCC2)NC(=O)[C@@H]2CCCN2C(=O)[C@@H](CCc2cc(F)c(C(F)(F)F)c(F)c2)NC(=O)CN(C)C(=O)[C@H](Cc2ccc(C(F)(F)F)cc2)N2CC=CC[C@@H](C2=O)N(C)C(=O)CN(C)C1=O` [PP3108], the IC50 in test [1] was 9250 nM. Besides, in test [2], the “NRAS/KRAS (ratio of KD value for NRAS to KD value for KRAS)” value is “C (A compound having a KD ratio of 0.1 or more and less than 3 is denoted as C)”; the “ratio of the KD value with respect to GDP-bound NRAS wild-type protein to the KD value with respect to KRAS” value is “C (A compound having a KD ratio of 0.1 or more and less than 3 is denoted as C)”. In addition, the dissociation constant (Kd) in test [3] (setting [5]) came to 870 nM. For the same molecule, the Kd in test [3] (setting [6]) came to 870 nM. Further, in test [4], the “HRAS/KRAS (ratio of KD value for HRAS to KD value for KRAS)” value is “B (a compound having 3 or more and less than 10 is denoted as B)”; the “ratio of the KD value with respect to GDP-bound HRAS wild-type protein to the KD value with respect to KRAS” value was “B (a compound having 3 or more and less than 10 is denoted as B)”.
As to `CCC[C@H]1C(=O)N[C@@H]([C@@H](C)CC)C(=O)N(C2CC2)CC(=O)N(C)[C@H]2C/C=C\CCN(C2=O)[C@@H](Cc2ccc(C(F)(F)F)cc2)C(=O)N(C)CC(=O)N[C@@H](CCc2cc(F)c(C(F)(F)F)c(F)c2)C(=O)N2C[C@H](OCC)C[C@H]2C(=O)N(C)C2(CCC2)C(=O)N(C)[C@@H](C2CCCC2)C(=O)N(C)[C@H](C(=O)N2CCCCC2)CC(=O)N1C` [PP3110], the IC50 in test [1] amounted to 69.9 nM. Also, in test [2], the “NRAS/KRAS (ratio of KD value for NRAS to KD value for KRAS)” value was “A (a compound having 10 or more and less than 20 is denoted as A)”; the “ratio of the KD value with respect to GDP-bound NRAS wild-type protein to the KD value with respect to KRAS” value is “A (a compound having 10 or more and less than 20 is denoted as A)”. In test [3] (setting [5]), the Kd worked out at 4.3 nM. Besides, the Kd in test [3] (setting [6]) was 4.3 nM. In test [4], the “HRAS/KRAS (ratio of KD value for HRAS to KD value for KRAS)” value is “A (a compound having 10 or more and less than 20 is denoted as A)”; the “ratio of the KD value with respect to GDP-bound HRAS wild-type protein to the KD value with respect to KRAS” value was “A (a compound having 10 or more and less than 20 is denoted as A)”.
`CCC[C@H]1C(=O)N[C@@H]([C@@H](C)CC)C(=O)N(C2CC2)CC(=O)N(C)[C@H]2C/C=C\CCN(C2=O)[C@@H](Cc2ccc(C(F)(F)F)cc2)C(=O)N(C)CC(=O)N[C@@H](CCc2cc(F)c(C(F)(F)F)c(F)c2)C(=O)N2C[C@H](OCC)C[C@H]2C(=O)N(C)C2(CCC2)C(=O)N(C)[C@@H](C2CCCC2)C(=O)N(C)[C@H](C(=O)N2CCCC2)CC(=O)N1C` [PP3112]: the IC50 in test [1] is 32.4 nM. Moreover, in test [2], the “NRAS/KRAS (ratio of KD value for NRAS to KD value for KRAS)” value is “A (a compound having 10 or more and less than 20 is denoted as A)”; the “ratio of the KD value with respect to GDP-bound NRAS wild-type protein to the KD value with respect to KRAS” value was “A (a compound having 10 or more and less than 20 is denoted as A)”. Besides, the Kd in test [3] (setting [5]) was 3.1 nM. The Kd in test [3] (setting [6]) is 3.1 nM. Besides, in test [4], the “HRAS/KRAS (ratio of KD value for HRAS to KD value for KRAS)” value was “B (a compound having 3 or more and less than 10 is denoted as B)”; the “ratio of the KD value with respect to GDP-bound HRAS wild-type protein to the KD value with respect to KRAS” value was “B (a compound having 3 or more and less than 10 is denoted as B)”.
`CCC[C@H]1C(=O)N[C@@H]([C@@H](C)CC)C(=O)N(C2CC2)CC(=O)N(C)[C@H]2C/C=C\CCN(C2=O)[C@@H](Cc2ccc(C)cc2)C(=O)N(C)CC(=O)N[C@@H](CCc2cc(F)c(C(F)(F)F)c(F)c2)C(=O)N2C[C@H](OCC)C[C@H]2C(=O)N(C)C2(CCC2)C(=O)N(C)[C@@H](C2CCCC2)C(=O)N(C)[C@H](C(=O)N2CCCC2)CC(=O)N1C` [PP3113, (2S,8S,12R,14S,20S,23S,27S,30S,36S,38Z)-20-cyclopentyl-32-cyclopropyl-8-[2-[3,5-difluoro-4-(trifluoromethyl)phenyl]ethyl]-12-ethoxy-4,16,19,22,26,35-hexamethyl-30-[(1S)-1-methylpropyl]-27-propyl-2-(p-tolylmethyl)-23-(pyrrolidine-1-carbonyl)spiro[1,4,7,10,16,19,22,26,29,32,35-undecazatricyclo[34.5.1.0^10,14]dotetracont-38-ene-17,1′-cyclobutane]-3,6,9,15,18,21,25,28,31,34,42-undecone]: the IC50 in test [1] was 6.1 nM. Moreover, in test [2], the “NRAS/KRAS (ratio of KD value for NRAS to KD value for KRAS)” value is “A (a compound having 10 or more and less than 20 is denoted as A)”; the “ratio of the KD value with respect to GDP-bound NRAS wild-type protein to the KD value with respect to KRAS” value is “A (a compound having 10 or more and less than 20 is denoted as A)”. Besides, in test [3] (setting [5]), the Kd is 0.17 nM. In addition, the Kd in test [3] (setting [6]) was found to be 0.17 nM. In test [4], the “HRAS/KRAS (ratio of KD value for HRAS to KD value for KRAS)” value is “A (a compound having 10 or more and less than 20 is denoted as A)”; the “ratio of the KD value with respect to GDP-bound HRAS wild-type protein to the KD value with respect to KRAS” value is “A (a compound having 10 or more and less than 20 is denoted as A)”.
As to `CCC[C@H]1C(=O)N[C@@H]([C@@H](C)CC)C(=O)N2CCC[C@H]2C(=O)N(C)[C@H]2C/C=C\CCN(C2=O)[C@@H](Cc2ccc(C(F)(F)F)cc2)C(=O)N(C)CC(=O)N[C@@H](CCc2cc(F)c(C(F)(F)F)c(F)c2)C(=O)N2C[C@H](OCC)C[C@H]2C(=O)N(C)C2(CCC2)C(=O)N(C)[C@@H](C2CCCC2)C(=O)N(C)[C@H](C(=O)N2CCCCC2)CC(=O)N1C` [PP3114], the IC50 in test [1] was 14.7 nM. In addition, in test [2], the “NRAS/KRAS (ratio of KD value for NRAS to KD value for KRAS)” value is on record as “AA (a compound having 20 or more is denoted as AA)” and the “ratio of the KD value with respect to GDP-bound NRAS wild-type protein to the KD value with respect to KRAS” value is “AA (a compound having 20 or more is denoted as AA)”. Further, the equilibrium dissociation constant (Kd) in test [3] (setting [5]) worked out at 4.5 nM. The dissociation constant Kd in test [3] (setting [6]) was 4.5 nM. In addition, in test [4], the “HRAS/KRAS (ratio of KD value for HRAS to KD value for KRAS)” value is “A (a compound having 10 or more and less than 20 is denoted as A)”; the “ratio of the KD value with respect to GDP-bound HRAS wild-type protein to the KD value with respect to KRAS” value is “A (a compound having 10 or more and less than 20 is denoted as A)”.
As for `CCC[C@H]1C(=O)N[C@@H]([C@@H](C)CC)C(=O)N2CCC[C@H]2C(=O)N(C)[C@H]2C/C=C\CCN(C2=O)[C@@H](Cc2ccc(C)cc2)C(=O)N(C)CC(=O)N[C@@H](CCc2cc(F)c(C(F)(F)F)c(F)c2)C(=O)N2C[C@H](OCC)C[C@H]2C(=O)N(C)C2(CCC2)C(=O)N(C)[C@@H](C2CCCC2)C(=O)N(C)[C@H](C(=O)N2CCCCC2)CC(=O)N1C` [PP3115, (1S,4S,10S,13S,17S,20S,26S,28R,32S,38S,42Z)-20-cyclopentyl-32-[2-[3,5-difluoro-4-(trifluoromethyl)phenyl]ethyl]-28-ethoxy-2,14,18,21,24,36-hexamethyl-10-[(1S)-1-methylpropyl]-17-(piperidine-1-carbonyl)-13-propyl-38-(p-tolylmethyl)spiro[2,8,11,14,18,21,24,30,33,36,39-undecazatetracyclo[37.5.1.0^4,8.0^26,30]pentatetracont-42-ene-23,1′-cyclobutane]-3,9,12,15,19,22,25,31,34,37,45-undecone], the IC50 in test [1] turned out to be 5.7 nM. In test [2], the “NRAS/KRAS (ratio of KD value for NRAS to KD value for KRAS)” value was “A (a compound having 10 or more and less than 20 is denoted as A)”; the “ratio of the KD value with respect to GDP-bound NRAS wild-type protein to the KD value with respect to KRAS” value is “A (a compound having 10 or more and less than 20 is denoted as A)”. For the same molecule, the Kd in test [3] (setting [5]) was found to be 2.6 nM. Further, the Kd in test [3] (setting [6]) stood at 2.6 nM. Also, in test [4], the “HRAS/KRAS (ratio of KD value for HRAS to KD value for KRAS)” value was “B (a compound having 3 or more and less than 10 is denoted as B)”; the “ratio of the KD value with respect to GDP-bound HRAS wild-type protein to the KD value with respect to KRAS” value was “B (a compound having 3 or more and less than 10 is denoted as B)”.
As to `CCC[C@H]1C(=O)N[C@@H]([C@@H](C)CC)C(=O)N2CCC[C@H]2C(=O)N(C)[C@H]2C/C=C\CCN(C2=O)[C@@H](Cc2ccc(C(F)(F)F)cc2)C(=O)N(C)CC(=O)N[C@@H](CCc2cc(F)c(C(F)(F)F)c(F)c2)C(=O)N2C[C@H](OCC)C[C@H]2C(=O)N(C)C2(CCC2)C(=O)N(C)[C@@H](C2CCCC2)C(=O)N(C)[C@H](C(=O)N2CCCC2)CC(=O)N1C` [PP3116], the IC50 in test [1] amounted to 7.8 nM. In addition, in test [2], the “NRAS/KRAS (ratio of KD value for NRAS to KD value for KRAS)” value was “A (a compound having 10 or more and less than 20 is denoted as A)”; the “ratio of the KD value with respect to GDP-bound NRAS wild-type protein to the KD value with respect to KRAS” value was “A (a compound having 10 or more and less than 20 is denoted as A)”. In addition, the Kd in test [3] (setting [5]) came to 0.27 nM. For the same molecule, in test [3] (setting [6]), the Kd came to 0.27 nM. Further, in test [4], the “HRAS/KRAS (ratio of KD value for HRAS to KD value for KRAS)” value is “A (a compound having 10 or more and less than 20 is denoted as A)”; the “ratio of the KD value with respect to GDP-bound HRAS wild-type protein to the KD value with respect to KRAS” value was “A (a compound having 10 or more and less than 20 is denoted as A)”.

In general, Kd refers to the free concentration of one partner at which half of the binding sites on the other are occupied at equilibrium, for simple one-to-one binding.
